According to patent publication US11413278B2, “Compounds and methods for promoting stress resistance” (priority 2015, dated 2022):
Where two headings read alike, the source gives them in different places.

Columns and labels:
[1] = tested on: PC12 cells expressing poly(Q)103-Htt-EGFP; assay: Poly(Q) toxicity & viability analysis (cellular model of Huntington's disease); format: cell-based, rat; details: for M = Huntington's poly-Q toxicity attenuation: score; for K = Huntington's poly-Q toxicity attenuation: summary score
How it was run: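 Readout is CellTiter-Glo ATP content measured after 48 hrs. Cells are a PC12 line stably expressing inducible poly(Q)103-Htt-EGFP, where induction produces toxic aggregates.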

[2] = Summary score for characterization of 38 core set hits; details: for D = Triple resistant: 2-point score, multiplex resistance (cadmium, MMS, H2O2); for S = Sum of Negative scores: human; for C = H2O2- & Cd-resistant: score, resistance to both H2O2 and cadmium
How it was run: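 Hits from a small-molecule screen for H2O2 resistance were scored across characterization assays. Multiplex resistance, FOXO3 and/or NRF2 activation and mTOR down-regulation each earned 2 points. C. elegans lifespan, tested in 4 to 6 independent trials, scored 0–2, and DNA-damaging or cytotoxic effects in cultured human cells cost one point.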

C. elegans = C. elegans lifespan assays (liquid and plate); format: in vivo, Caenorhabditis elegans; details: for ILS at 60 µM / ILS at 66 µM: Caenorhabditis elegans; for O = Life span- extending scores in worms: score scale 0 to 2, 4 to 6 independent trials; for M = Lifespan-extending scores in worms: summary score
LC3A/B puncta = assay: Autophagy induction analysis (LC3A/B puncta immuno-staining); format: cell-based, human
How it was run: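 Read-out is LC3A/B puncta intensity per DAPI-positive nucleus, either total puncta (Exp. 1) or puncta colocalizing with LAMP2 lysosomes (Exp. 2). Cells were WI-38, exposed to compounds for 24 hrs before antibody staining overnight at 4° C and automated imaging.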

[3] = in liquid, wild type, with FuDR, 1.0 × 10^9 bacteria/ml, read-out: relative change of mean lifespan vs control, Trial 1
[4] = in liquid, wild type, with FuDR, 2.5 × 10^9 bacteria/ml, read-out: relative change of mean lifespan vs control, Trial 2
[5] = on plate, CF512 temperature-sensitive sterile animals, without FuDR, 2.0 × 10^10 bacteria/ml, read-out: relative change of mean lifespan vs control, Trial 3
[6] = Assay 2(z), 1.0 × 10^9 bacteria/ml, wild type + FuDR (2012 July), read-out: Lifespan assay in liquid
[7] = Assay 3(aa), 2.5 × 10^9 bacteria/ml, wild type + FuDR, read-out: Lifespan assay in liquid
[8] = Assay 4(ab), 2.0 × 10^10 bacteria/ml, CF512 worms, no FuDR, read-out: Lifespan assay on plates

Structure (SMILES) | M = Huntington's poly-Q toxicity attenuation [1] | K = Huntington's poly-Q toxicity attenuation [1] | D = Triple resistant [2] | S = Sum of Negative scores [2] | C = H2O2- & Cd-resistant [2] | ILS at 60 µM (C. elegans; [3]) [%] | ILS at 60 µM (C. elegans; [4]) [%] | ILS at 60 µM (C. elegans; [5]) [%] | ILS at 66 µM (C. elegans; [6]) [%] | ILS at 66 µM (C. elegans; [7]) [%] | ILS at 66 µM (C. elegans; [8]) [%] | Lifespan extension of C. elegans (C. elegans; across independent trials) [%] | Extension of C. elegans' lifespan (qualitative) (C. elegans; in at least 3 to 4 trials, group range ~10% to ~50%) | Trials with lifespan extension (C. elegans; positive of total trials) | O = Life span- extending scores in worms (C. elegans) | M = Lifespan-extending scores in worms (C. elegans) | H = Potential Autophagy Induction (LC3A/B puncta; score) | H = Potential Autophagy Induction (LC3A/B puncta; summary score) | Exp. 1, induction of LC3A/B puncta (Up), total intensity normalized by total number of nuclei in the fields (LC3A/B puncta; Exp. 1, 10 μM, 10X objective, WI-38 cells)
Oc1ncnc2sc3c(c12)CCC3 [O14] | 0 | 0 | 0 | 0 | 1 | 13.7 | 5.8 | 11.3 | 13.7 | 5.8 | 11.3 | ≥ 10 | could extend animal's lifespan | 3 of 3 | 2 (2 for observed in more than 2 trials) | 2 (2 for observed in more than 2 trials) | 0 | 0 | 
O=C(Nc1cc(C(F)(F)F)ccc1Cl)c1ccc([N+](=O)[O-])o1 [Gr-1B] | 0 | 0 | 0 | 0 | 1 | 12.9 | 8 | 15.1 | 12.9 | 8 | 15.1 |  |  |  | 1 (1 for lifespan extension observed in 2 trials) | 1 (1 for lifespan extension observed in 2 trials) | 0 | 0 | No induction
O=C(Nc1nc(C23CC4CC(CC(C4)C2)C3)cs1)C(c1ccccc1)c1ccccc1 [O10] | 0 | 0 | 0 | 0 | 1 | 5.9 | -6.2 | 9.5 | 5.9 | -6.2 | 9.5 |  |  |  | 0 | 0 | 0 | 0 | 
CCc1ccc(Oc2nc3ccccn3c(=O)c2/C=C(\C#N)C(=O)NCc2ccco2)cc1 [Gr-5B] | 0 | 0 | 0 | 0 | 0 | 37.2 | 2 | 1.7 | 37.2 | 2 | 1.7 |  |  |  | 0 | 0 | 0 | 0 | 
